Test results: publication PMC3747139 (PLoS ONE, 2013)
Read-outs that look alike come from different tables or passages of the source. Marks after values point to notes of the source that are not given here.

Assays:
[1] = system: B16F10; experiment: Cell count assay (trypan blue); assay type: cell-based, human; conditions: for Number of viable cells after 24 h of ligand treatment: B16F10, 24 h; for Number of viable cells after 48 h of ligand treatment: B16F10, 48 h
Protocol: (§1) Normal and tumor cell lines were seeded at 20000–40000 cells/cm^2 with 0.2 mL/cm^2 media and incubated for 48 h at 37°C, 6% CO2, 95% relative humidity. […] After 24 h and 48 h of incubation, cells were washed with 300 µl PBS or 0.02% EDTA, trypsinized, followed by harvesting at 37°C. 200 µl cell suspension was transferred into 1.5 ml microcentrifuge tube. To the cell suspension, 300 µl PBS followed by 500 µl of 0.4% trypan blue solution was added. To get the homogenised solution, the microcentrifuge tube was gently tapped for 5 min, 20 µl of cell suspension was loaded in to a chamber of the haemocytometer.

[2] = system: A549; experiment: Cell count assay (trypan blue); assay type: cell-based, human; conditions: for Number of viable cells after 24 h of ligand treatment: A549, 24 h; for Number of viable cells after 48 h of ligand treatment: A549, 48 h;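 for Number of viable cells after 24 h of ligand treatment: each ligand tested at its own IC50 concentration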
Protocol: as §1

[3] = system: MCF-7; experiment: Cell count assay (trypan blue); assay type: cell-based, human; conditions: for Number of viable cells after 24 h of ligand treatment: MCF-7, 24 h; for Number of viable cells after 48 h of ligand treatment: MCF-7, 48 h;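 for Number of viable cells after 48 h of ligand treatment: each ligand tested at its own IC50 concentration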
Protocol: as §1

[4] = Cell count assay (trypan blue); assay type: cell-based; design: concentration or dose not given beside the values; conditions: human; for viability at 24 h: read-out: Number of viable cells after 24 h of ligand treatment; for viability at 48 h: read-out: Number of viable cells after 48 h of ligand treatment
Protocol: as §1

[5] = system: HQF DNA [d(T2AG3)4]; experiment: SYBR Green melting study with HQF DNA; assay type: binding, human; conditions: melting temperature of HQF DNA (5 µM) in presence of 1 µM ligand
Protocol: When quadruplex DNA melts to form ssDNA structure, SG fluorescence intensity gradually reduces as SG has no binding to ssDNA. Each time, 5 µM of HQF DNA [d(T2AG3)4)], 5 µM of dsDNA (prepared by mixing equal concentration of poly-dA-dT and poly-dT-dA), 5 µM ssDNA ( poly dT alone) and 1 µM of each ligand was incubated at 4°C for 16 h, and used for melting studies. […] Affinity, stoichiometry and thermodynamic parameters for quadruplex-ligand complex were studied with 60 µM of ligand and 10 µM of HQF DNA using Microcal VP-ITC (Northampton, MA, USA). Ligand addition to G-quadruplex DNA was made every 180 seconds. Titration experiments were performed thrice and blank correction was made each time to minimize error.

[6] = CRL-2115 cells (normal cell line), CRL-2115, 24 h
[7] = CRL-2115 cells (normal cell line), CRL-2115, 48 h
[8] = CRL-2120 cells (normal cell line), CRL-2120, 24 h
[9] = CRL-2120 cells (normal cell line), CRL-2120, 48 h
[10] = NCM-460 cells (normal cell line), NCM-460, 24 h
[11] = NCM-460 cells (normal cell line), NCM-460, 48 h

SMILES | Number of viable cells after 24 h of ligand treatment [1] | Number of viable cells after 48 h of ligand treatment [1] | Number of viable cells after 24 h of ligand treatment [2] | Number of viable cells after 48 h of ligand treatment [2] | Number of viable cells after 24 h of ligand treatment [3] | Number of viable cells after 48 h of ligand treatment [3] | viability at 24 h [4, 6] [%] | viability at 48 h [4, 7] [%] | viability at 24 h [4, 8] [%] | viability at 48 h [4, 9] [%] | viability at 24 h [4, 10] [%] | viability at 48 h [4, 11] [%] | Tm [5]
c1ccc(Cn2nnc(-c3ccccc3)c2-c2ccccc2)cc1 [Ligand L4, 1-Benzyl-4,5-diphenyl-1H-1,2,3-triazole] | ++/++ (Viable cells in the range of 50%–60%) | ++/++ (Viable cells in the range of 50%–60%) | + (Viable cells in the range of 80%–90%) | ++ (Viable cells in the range of 50%–60%) | ++/++ (Viable cells in the range of 50%–60%) | ++/++ (Viable cells in the range of 50%–60%) | 80 to 90 | 50 to 60 | 80 to 90 | 80 to 90 | 80 to 90 | 50 to 60 | 32 ^o C
CCCCc1nnn(Cc2ccccc2)c1/C=C/c1ccccc1 [Ligand L5, (E)-1-Benzyl-4-butyl-5-styryl-1H-1,2,3-triazole] | ++/++ (Viable cells in the range of 50%–60%) | ++/++ (Viable cells in the range of 50%–60%) | + (Viable cells in the range of 80%–90%) | ++ (Viable cells in the range of 50%–60%) | ++/++ (Viable cells in the range of 50%–60%) | ++/++ (Viable cells in the range of 50%–60%) | 80 to 90 | 50 to 60 | 80 to 90 | 50 to 60 | 80 to 90 | 50 to 60 | 33 ^o C
CCCCc1nnn(Cc2ccccc2)c1-c1cccc(O)c1 [Ligand L6, 3-(3-Benzyl-5-butyl-3H-1,2,3-triazol-4-yl)phenol] | + (Viable cells in the range of 80%–90%) | ++ (Viable cells in the range of 50%–60%) | ++/++ (Viable cells in the range of 50%–60%) | ++/++ (Viable cells in the range of 50%–60%) | + (Viable cells in the range of 80%–90%) | ++ (Viable cells in the range of 50%–60%) | 80 to 90 | 50 to 60 | 80 to 90 | 50 to 60 | 50 to 60 | 50 to 60 | 33 ^o C
c1ccc(-c2nnn(CC3CCCCO3)c2-c2ccccc2)cc1 (stereo not shown) [Ligand L7, 4,5-Diphenyl-1-((tetrahydro-2H-pyran-2-yl)methyl)-1H-1,2,3-triazole] | + (Viable cells in the range of 80%–90%) | ++ (Viable cells in the range of 50%–60%) | +/+ (Viable cells in the range of 80%–90%) | +/+ (Viable cells in the range of 80%–90%) | + (Viable cells in the range of 80%–90%) | ++ (Viable cells in the range of 50%–60%) | 80 to 90 | 80 to 90 | 80 to 90 | 50 to 60 | 80 to 90 | 50 to 60 | 29 ^o C
Oc1cccc(-c2c(-c3ccccc3)nnn2CC2CCCCO2)c1 (stereo not shown) [Ligand L8] |  |  |  |  |  |  |  |  |  |  |  |  | 27 ^o C
CCOC(=O)c1nnn(Cc2ccccc2)c1-c1ccccc1 [Ligand L9, Ethyl 1-benzyl-5-phenyl-1H-1,2,3-triazole-4-carboxylate] | + (Viable cells in the range of 80%–90%) | ++ (Viable cells in the range of 50%–60%) | + (Viable cells in the range of 80%–90%) | ++ (Viable cells in the range of 50%–60%) | +/+ (Viable cells in the range of 80%–90%) | +/+ (Viable cells in the range of 80%–90%) | 80 to 90 | 50 to 60 | 80 to 90 | 80 to 90 | 80 to 90 | 80 to 90 | 29 ^o C
CCOC(=O)c1nnn(Cc2ccccc2)c1/C=C/c1ccccc1 [Ligand L10, (E)-Ethyl 1-benzyl-5-styryl-1H-1,2,3-triazole-4-carboxylate] | + (Viable cells in the range of 80%–90%) | ++ (Viable cells in the range of 50%–60%) | +/+ (Viable cells in the range of 80%–90%) | +/+ (Viable cells in the range of 80%–90%) | + (Viable cells in the range of 80%–90%) | ++ (Viable cells in the range of 50%–60%) | 80 to 90 | 80 to 90 | 80 to 90 | 80 to 90 | 80 to 90 | 50 to 60 | 33 ^o C
CCOC(=O)c1nnn(Cc2ccccc2)c1-c1cccc(O)c1 [Ligand L11, Ethyl 1-benzyl-5-(3-hydroxyphenyl)-1H-1,2,3-triazole-4-carboxylate] | + (Viable cells in the range of 80%–90%) | ++ (Viable cells in the range of 50%–60%) | + (Viable cells in the range of 80%–90%) | ++ (Viable cells in the range of 50%–60%) | + (Viable cells in the range of 80%–90%) | ++ (Viable cells in the range of 50%–60%) | 80 to 90 | 80 to 90 | 80 to 90 | 80 to 90 | 80 to 90 | 80 to 90 | 28 ^o C
C(=C\c1c(-c2ccccc2)nnn1CC1CCCCO1)/c1ccccc1 (stereo not shown) [Ligand L12, (E)-4-Phenyl-5-styryl-1-((tetrahydro-2H-pyran-2-yl)methyl)-1H-1,2,3-triazole] | + (Viable cells in the range of 80%–90%) | ++ (Viable cells in the range of 50%–60%) | +/+ (Viable cells in the range of 80%–90%) | +/+ (Viable cells in the range of 80%–90%) | + (Viable cells in the range of 80%–90%) | ++ (Viable cells in the range of 50%–60%) | 80 to 90 | 80 to 90 | 80 to 90 | 80 to 90 | 80 to 90 | 50 to 60 | 31 ^o C
Oc1cccc(-c2c(-c3ccccc3)nnn2CC2CCCCO2)c1 (stereo not shown) [Ligand L13, 3-(5-Phenyl-3-((tetrahydro-2H-pyran-2-yl)methyl)-3H-1,2,3-triazol-4-yl)phenol] | + (Viable cells in the range of 80%–90%) | ++ (Viable cells in the range of 50%–60%) | +/+ (Viable cells in the range of 80%–90%) | +/+ (Viable cells in the range of 80%–90%) | +/+ (Viable cells in the range of 80%–90%) | +/+ (Viable cells in the range of 80%–90%) | 80 to 90 | 80 to 90 | 80 to 90 | 80 to 90 | 80 to 90 | 80 to 90 | 33 ^o C
